Measurements reported in patent US20210246115A1 (Bioimics AB, priority 2017, published 2021).
Values after ≈ are worked out from the molar mass of the structure shown. Where a name gives a salt, the structure may show the parent alone. Read-outs that look alike come from different tables or passages of the source.

Assays:
[1] = system: Staphylococcus aureus subsp. aureus (ATCC29213); assay: MIC, broth microdilution (CLSI), Staphylococcus aureus ATCC29213; assay type: cell-based; details: for MIC: Staphylococcus aureus
[2] = system: Escherichia coli (ATCC25922); assay: MIC, broth microdilution (CLSI), Escherichia coli; details: for MIC: Escherichia coli, ATCC25922, read-out: E. coli ATCC 25922 MIC, Table XIII
[3] = ATCC29213, Table XIII, read-out: S. aureus ATCC 29213 MIC
[4] = ATCC29213, read-out: S. aureus ATCC 29213 MIC, Table XIII

| SMILES | MIC [1, 3] [µg/mL] | MIC [2] [µg/mL] | MIC [1, 4] [µg/mL] | S. aureus ATCC 29213 MIC ([1]; Table XIII, hydrochloride salt) [µg/mL] | E. coli ATCC 25922 MIC ([2]; Table XIII, hydrochloride salt) [µg/mL] |
| --- | --- | --- | --- | --- | --- |
| CCN(Cc1cn(CC2CCCCC2)c2ccccc12)CC1CCN(C)CC1 [Compound 303, N-((1-(cyclohexylmethyl)-1H-indol-3-yl)methyl)-N-((1-methylpiperidin-4-yl)methyl)ethanamine] | 128 (≈ 335 µM) | 128 (≈ 335 µM) |  |  |  |
| Cc1cccc(C(CCNC2CCC(N)CC2)c2cn(C3CCOCC3)c3ccccc23)c1 (centres unmarked) [Compound 307, N1-(3-(1-(tetrahydro-2H-pyran-4-yl)-1H-indol-3-yl)-3-(m-tolyl)propyl) cyclohexane-1,4-diamine hydrochloride salt] |  | 64 | 64 |  |  |
| Cc1cccc(C(CCNCCCN)c2cn(CC3CCNCC3)c3ccc(C#N)cc23)c1 (centres unmarked) [Compound 327, 3-(3-((3-aminopropyl)amino)-1-(m-tolyl)propyl)-1-(piperidin-4-ylmethyl)-1H-indole-5-carbonitrile hydrochloride salt] |  | > 128 | 32 |  |  |
| Cc1cccc(C(CCNC2CCC(N)CC2)c2cn(C3CCCCC3)c3ccccc23)c1 [Compound 392, (1S,4S)- -N1-(3-(1-cyclohexyl-1H-indol-3-yl)-3-(m-tolyl)propyl) cyclohexane-1,4-diamine hydrochloride salt] |  |  |  | 8 | 8 |
| NC1CCC(NCCC(c2cccnc2)c2cn(C3CC4CCC3C4)c3ccccc23)CC1 (centres unmarked) [Compound 324, N1-(3-(1-(bicyclo[2.2.1]heptan-2-yl)-1H-indol-3-yl)-3-(pyridin-3-yl)propyl)cyclohexane-1,4-diamine hydrochloride salt] |  | 64 | 32 |  |  |
| Cc1cccc(C(CCNCCCCN)c2cn(C3CCCCC3)c3ccccc23)c1.Cl.Cl (centres unmarked) [Compound 350, N1-(3-(1-cyclohexyl-1H-indol-3-yl)-3-(m-tolyl)propyl)butane-1,4-diamine salt] | 8 | 8 |  |  |  |
| Cc1cccc(C(CCNCCN)c2cn(C3CCCCC3)c3ccccc23)c1.Cl.Cl (centres unmarked) [Compound 347, N1-(3-(1-cyclohexyl-1H-indol-3-yl)-3-(m-tolyl)propyl)ethane-1,2-diamine hydrochloride salt] | 8 | 16 |  |  |  |
| N[C@H]1CC[C@H](NCCC(c2ccncc2)c2cn(C3CC4CCC3C4)c3ccccc23)CC1 (stereo partly drawn) [Compound 336, (1R,4R)-N1-(3-(1-(bicyclo[2.2.1]heptan-2-yl)-1H-indol-3-yl)-3-(pyridin-4-yl)propyl)cyclohexane-1,4-diamine hydrochloride salt] |  | 128 | 64 |  |  |
| Cc1cccc(C(CCNC2CCNCC2)c2cn(C3CCNCC3)c3ccccc23)c1 (centres unmarked) [Compound 317, N-(3-(1-(piperidin-4-yl)-1H-indol-3-yl)-3-(m-tolyl)propyl)piperidin-4-amine hydrochloride salt] |  | > 128 | 64 |  |  |
| Cl.Cl.c1cncc(C(CCNC2CCNCC2)c2cn(CC3CCCCC3)c3ccccc23)c1 (centres unmarked) [Compound 320, N-(3-(1-(cyclohexylmethyl)-1H-indol-3-yl)-3-(pyridin-3-yl)propyl) piperidin-4-amine hydrochloride salt] | 128 | 128 |  |  |  |
| Cc1cccc(C(CCNCC2CNCCO2)c2cn(C3CCCCC3)c3ccc(Br)cc23)c1 (centres unmarked) [Compound 405, 3-(5-bromo-1-cyclohexyl-1H-indol-3-yl)-N-(morpholin-2-ylmethyl)-3-(m-tolyl)propan-1-amine hydrochloride salt] |  | 16 | 8 |  |  |
| CCN(Cc1cn(CC2CCCCC2)c2ccccc12)CC1CCNCC1 [Compound 302, hydrochloride salt] |  | 128 | 128 |  |  |
| Cc1cccc(C(CCNC2CCC(N)CC2)c2cn(C3CCNCC3)c3ccccc23)c1 (centres unmarked) [Compound 306, N1-(3-(1-(piperidin-4-yl)-1H-indol-3-yl)-3-(m-tolyl)propyl)cyclohexane-1,4-diamine hydrochloride salt] |  | > 128 | 16 |  |  |

Further lines, with some results ahead:

| MIC [1, 3] [µg/mL] | MIC [2] [µg/mL] | SMILES | MIC [1, 4] [µg/mL] | S. aureus ATCC 29213 MIC ([1]; Table XIII, hydrochloride salt) [µg/mL] | E. coli ATCC 25922 MIC ([2]; Table XIII, hydrochloride salt) [µg/mL] |
| --- | --- | --- | --- | --- | --- |
| 8 | > 128 | Cc1cccc(C(CCN)c2cn(C3CCCCC3)c3ccccc23)c1.Cl (centres unmarked) [Compound 352, 3-(1-cyclohexyl-1H-indol-3-yl)-3-(m-tolyl)propan-1-amine hydrochloride salt] |  |  |  |
| 8 | 8 | Cc1cccc(C(CCNCCCN)c2cn(CC3CCCCC3)c3ccccc23)c1.Cl.Cl (centres unmarked) [Compound 346, N1-(3-(1-(cyclohexylmethyl)-1H-indol-3-yl)-3-(m-tolyl)propyl)propane-1,3-diamine hydrochloride salt] |  |  |  |
| 32 | 128 | Cl.Cl.NCCCNCCC(c1cccnc1)c1cn(C2CCCCC2)c2ccccc12 (centres unmarked) [Compound 331, N1-(3-(1-cyclohexyl-1H-indol-3-yl)-3-(pyridin-3-yl)propyl)propane-1,3-diamine hydrochloride salt] |  |  |  |
| 128 (≈ 286 µM) | > 128 | Cc1cccc(C(CCNCCCN)c2cn(C3CCCCC3)c3ccc(C(=O)O)cc23)c1 (centres unmarked) [Compound 387, 3-(3-((3-aminopropyl)amino)-1-(m-tolyl)propyl)-1-cyclohexyl-1H-indole-5-carboxylic acid compound with 2,2,2-trifluoroacetaldehyde (1:2)] |  |  |  |
| 8 | 8 | Cl.Cl.N#Cc1ccc2c(c1)c(C(CCNC1CCNCC1)C1CCCCC1)cn2C1CCCCC1 (centres unmarked) [Compound 406, 1-cyclohexyl-3-(1-cyclohexyl-3-(piperidin-4-ylamino)propyl)-1H-indole-5-carbonitrile salt] |  |  |  |
| 64 | 128 | Cl.Cl.NCCCNCCC(c1ccncc1)c1cn(C2CC3CCC2C3)c2ccccc12 (centres unmarked) [Compound 338, N1-(3-(1-(bicyclo[2.2.1]heptan-2-yl)-1H-indol-3-yl)-3-(pyridin-4-yl)propyl)propane-1,3-diamine hydrochloride salt] |  |  |  |
| 16 (≈ 39.5 µM) | > 128 | Cc1cccc(C(CCNCCCO)c2cn(C3CCCCC3)c3ccccc23)c1 (centres unmarked) [Compound 366, 3-((3-(1-cyclohexyl-1H-indol-3-yl)-3-(m-tolyl)propyl)amino) propan-1-ol] |  |  |  |
| 4 | 8 | Cl.Cl.N[C@H]1CC[C@H](NCCC(c2cn(C3CCCCC3)c3ccccc23)C2CCCCC2)CC1 (some centres unmarked) [Compound 378] |  |  |  |
| 8 | 8 | CNCCCNCCC(c1cccc(C)c1)c1cn(C2CCCCC2)c2ccccc12.Cl.Cl (centres unmarked) [Compound 368, N1-(3-(1-cyclohexyl-1H-indol-3-yl)-3-(m-tolyl)propyl)-N3-methylpropane-1,3-diamine hydrochloride] |  |  |  |
| 64 | 128 | Cl.Cl.N[C@H]1CC[C@H](NCCC(c2ccncc2)c2cn(C3CCCCC3)c3ccccc23)CC1 (some centres unmarked) [Compound 340, (1r,4r)-N1-(3-(1-cyclohexyl-1H-indol-3-yl)-3-(pyridin-4-yl)propyl) cyclohexane-1,4-diamine hydrochloride salt] |  |  |  |
| 32 | 64 | Cl.Cl.NCCCNCCC(c1cccnc1)c1cn(C2CC3CCC2C3)c2ccccc12 (centres unmarked) [Compound 328, N1-(3-(1-(bicyclo[2.2.1]heptan-2-yl)-1H-indol-3-yl)-3-(pyridin-3-yl)propyl)propane-1,3-diamine hydrochloride salt] |  |  |  |
| 8 | 8 | Cc1cccc(CC(CCNCCCN)c2cn(C3CCCCC3)c3ccccc23)c1.Cl.Cl (centres unmarked) [Compound 419, N1-(3-(1-cyclohexyl-1H-indol-3-yl)-4-(m-tolyl)butyl)propane-1,3-diamine hydrochloride salt] |  |  |  |
